Tested on: Skin fibroblasts derived from FA patients (GM4078)
Assay: RSL3-induced cell death inhibitory activity in skin fibroblasts derived from FA patients (ATP, CellTiter-Glo)
Type: cell-based, human
Settings: 3 μmol/l RSL3, 24 hours
Description: The effects of the compounds according to the present disclosure were evaluated according to the literature (M. G. Cotticelli et al, J Pharmacol Exp Ther 2019, 369, 47-54.).
Skin fibroblasts derived from FA patients (Coriell Institute for Medical Research, GM4078) were cultured in a culture medium consisting of DMEM (Thermo Fisher Scientific, 11995-065), 10% fetal bovine serum (Thermo Fisher Scientific, 26140-087), 1% GlutaMAX supplement (Thermo Fisher Scientific, 35050-061) and 1% Penicillin-Streptomycin solution (FUJIFILM Wako Pure Chemical Corporation, 168-23191).
For assay, the fibroblasts in the above culture medium were seeded in a 384-well plate at 1,500 cells per well, and the test compound and 3 μmol/l (final concentration) RSL3 were added to the plate the day after seeding. The concentration of the test compound added to the assay plate was 0.01, 0.1, 1 and 10 μmol/l as 4 points, and DMSO was added as a negative control for the test compound and RSL3. Twenty-four hours after the addition of RSL3/the test compound, CellTiter-Glo Luminescent Cell Viability Assay solution (Promega, G7573) was added to the plate to lyse the cells, and ATP was measured as an index of cell viability by detecting chemiluminescence with a plate reader.
RSL3-induced cell death inhibitory activity of the test compound=((X−C)/(T−C))×100 • X: ATP in the RSL3 addition/the test compound addition group, • C: ATP in the RSL3 addition/the test compound non-addition group, • T: ATP in the RSL3 non-addition/the test compound non-addition group

Structure (SMILES) | RSL3-induced cell death inhibitory activity (%) at each compound concentration (μmol/l) (compound 0.01 μmol/l) [%] | RSL3-induced cell death inhibitory activity (%) at each compound concentration (μmol/l) (compound 0.1 μmol/l) [%] | RSL3-induced cell death inhibitory activity (%) at each compound concentration (μmol/l) (compound 1 μmol/l) [%] | RSL3-induced cell death inhibitory activity (%) at each compound concentration (μmol/l) (compound 10 μmol/l) [%]
COCc1nn(C)cc1Nc1nn(C2CCC2)c2cc(C(C)(C)O)ccc12 [Example 82, 2-(1-cyclobutyl-3-{[3-(methoxymethyl)-1-methyl-1H-pyrazol-4-yl]amino}-1H-indazol-6-yl)propan-2-ol] | 1.9 | 41.6 | 64.0 | 73.8
Cn1nc(Nc2cccc3c2OCC3)c2ccc(C(C)(C)O)cc21 [Example 2, 2-{3-[(2,3-dihydro-1-benzofuran-7-yl)amino]-1-methyl-1H-indazol-6-yl}propan-2-ol] | 4.7 | 71.7 | 95.4 | 83.5
